The source of these data is patent publication US8822229B2, “Method for assaying keratan sulfate, assay kit therefor and method for detecting joint disease by using the same” (Seikagaku Corporation, priority 2008, dated 2014).

For experiment [1], the system named is adjuvant-induced arthritis (AIA) model in rats. The experiment in a line: adjuvant-induced arthritis (AIA) model in rats, left hind paw edema volume. It counts as in vivo, rat. The settings on record: incadronate 1 mg/kg s.c. once a day from day 14; day 35 after adjuvant; vs AIA control group. The protocol: (§1) In Example 5, 6-week-old male Lewis rats (SPF, Charles River Laboratories Japan, Inc.) were employed. The adjuvant was prepared by suspending heat-killed Mycobacterium butyricum (product of DIFCO) in liquid paraffin (product of Wako Pure Chemical Industries, Ltd.) at a concentration of 6 mg/mL. The adjuvant was subcutaneously administered to each of the rats in the right hind paw (0.3 mg/paw) without anesthesia. Fourteen days after administration, the rats were divided into 4 groups. To a non-treated normal control group, only liquid paraffin was administered to the rats in a similar manner. From the timing of the grouping, incadronate (Bisphonal (registered trademark) injection (10 mg), product of Astellas Pharma Inc.) was subcutaneously administered to the rats every day (once a day) at a dose of 1 mg/kg to the day before the day of sacrifice. […] The edema volume of the left hind paw was measured by means of a volumetric apparatus (TK-101CMP, product of UNICOM). […] The plasma KS level (non-treated control group, AIA control group, and incadronate-administered group) was determined on day 35 after administration of the adjuvant, by means of a conventional KS assay kit (5D4 assay system) and through the KS assay system of the present invention. […]

A short description of experiment [2]: adjuvant-induced arthritis (AIA) model in rats, plasma KS level. The experiment is classed as in vivo, rat. The settings on record: incadronate 1 mg/kg s.c. once a day from day 14; day 35 after adjuvant; BCD-4/MK-172 assay; vs AIA control group. The method, then:
as §1

Take `O=P(O)(O)C(NC1CCCCCC1)P(=O)(O)O` [incadronate]: the left paw volume result in experiment [1] was “reduced as compared with the AIA control group”. In addition, in experiment [2], the “plasma KS level” value is on record as “reduced as compared with the AIA control group”.
